From paper PMC10580313, “A Chemoproteomic Approach to Elucidate the Mechanism of Action of 6-Azasteroids with Unique Activity in Mycobacteria” (ACS Infectious Diseases, 2023)

Key:
Mm (BAA-535) = test: BDQ potentiation MIC99 microbroth assay, Mm; assay type: cell-based, Mycobacterium marinum; settings: for Fold ∆ of BDQ MIC, Mm: 6-azasteroid fixed at 20 μM, relative to BDQ MIC99 without azasteroid
THP-1 cells = test: Cytotoxicity assay (Alamar Blue), THP-1; assay type: cell-based; settings: 72 h, read-out: Mammalian Cell IC50, THP1
Mtb (CDC1551) = test: BDQ potentiation MIC99 microbroth assay, Mtb; assay type: cell-based, Mycobacterium tuberculosis; settings: 6-azasteroid fixed at 20 μM; relative to BDQ MIC99 without azasteroid
Mtb = test: MIC of 6-azasteroid alone, Mtb; assay type: cell-based, Mycobacterium tuberculosis; settings: (MIC99 reported as micromolar)
HepG2 cells = test: Cytotoxicity assay (Alamar Blue), HepG2; assay type: cell-based, human; settings: 72 h, read-out: Mammalian Cell IC50, HepG2
Mm = test: MIC of 6-azasteroid alone, Mm; assay type: cell-based, Mycobacterium marinum; settings: (micromolar)
[1] = target: T1, recombinant Mtb 3β-Hsd (Rv1106c) (Mycobacterium tuberculosis, UniProt P9WQP7); assay type: biochemical; settings: 50 μM 6-azasteroid
T1 construct: made in house
T1 sequence (P9WQP7 whole entry): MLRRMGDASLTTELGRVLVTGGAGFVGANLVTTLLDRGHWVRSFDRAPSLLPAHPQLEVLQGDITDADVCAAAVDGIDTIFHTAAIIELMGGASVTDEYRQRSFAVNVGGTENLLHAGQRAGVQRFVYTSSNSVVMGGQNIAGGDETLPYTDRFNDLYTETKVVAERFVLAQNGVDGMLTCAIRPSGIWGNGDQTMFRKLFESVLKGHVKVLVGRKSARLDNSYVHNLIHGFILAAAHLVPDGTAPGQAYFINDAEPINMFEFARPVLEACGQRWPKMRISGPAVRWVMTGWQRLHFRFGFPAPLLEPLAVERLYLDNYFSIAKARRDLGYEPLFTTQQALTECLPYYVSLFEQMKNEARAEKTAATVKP

SMILES | IC50 (THP-1 cells) [µM] | Fold ∆ of BDQ MIC, Mtb (Mtb (CDC1551)) | Mtb MIC Alone (Mtb) [µM] | IC50 (HepG2 cells) [µM] | also measured
COc1nc2ccc(Br)cc2cc1[C@@H](c1ccccc1)[C@@](O)(CCN(C)C)c1cccc2ccccc12 [bedaquiline, reference compound] |  |  |  |  | MIC (Mm (BAA-535); Mycobacterium marinum, BAA535, read-out: Mm bedaquiline minimal inhibitory concentration, alone): 0.085 µM
CC(C)(C)c1ccc(C(C)(C)C)c(NC(=O)C2CCC3C4CNC5=CC(=O)CC[C@]5(C)C4CC[C@]23C)c1 (stereo partly drawn) [compound 1] | 17.7 | 16 fold | 40 |  | 
CC(C)(C)c1ccc(C(C)(C)C)c(NC(=O)C2CCC3C4CNC5CC(=O)CC[C@]5(C)C4CC[C@]23C)c1 (stereo partly drawn) [compound 3] | 14.2 |  | 10 | 16.9 | 
CCCN1CC2C3CCC(C(=O)Nc4cc(C(C)(C)C)ccc4C(C)(C)C)[C@@]3(C)CCC2[C@@]2(C)CCC(=O)CC12 (stereo partly drawn) [compound 4] | 73 |  | 20 |  | 
CC(C)(C)c1ccc(C(F)(F)F)cc1NC(=O)C1CCC2C3CNC4=CC(=O)CC[C@]4(C)C3CC[C@]12C (stereo partly drawn) [compound 5] |  | 2 fold | > 20 | 60 | 
CCCN1CC2C3CCC(C(=O)Nc4cc(C(F)(F)F)ccc4C(C)(C)C)[C@@]3(C)CCC2[C@@]2(C)CCC(=O)C=C12 (stereo partly drawn) [compound 6] |  |  |  | 71 | Fold ∆ of BDQ MIC, Mm (Mm (BAA-535)): 3 fold; MIC Alone (Mm) (Mm): > 20 µM
CC(C)(C)c1ccc(C(F)(F)F)cc1NC(=O)C1CCC2C3CNC4CC(=O)CC[C@]4(C)C3CC[C@]12C (stereo partly drawn) [compound 7] |  |  | 30 | 12.1 | 
C[C@]12CCC3C(CN(CCCF)C4=CC(=O)CC[C@@]43C)C1CCC2C(=O)Nc1cc(C(F)(F)F)ccc1C(F)(F)F (stereo partly drawn) [compound 8] |  |  |  | > 100 | Fold ∆ of BDQ MIC, Mm (Mm (BAA-535)): 7 fold; MIC Alone (Mm) (Mm): > 20 µM
C[C@]12CCC3C(CN(CCC(F)(F)F)C4=CC(=O)CC[C@@]43C)C1CCC2C(=O)Nc1cc(C(F)(F)F)ccc1C(F)(F)F (stereo partly drawn) [compound 9] |  |  |  | > 100 | Fold ∆ of BDQ MIC, Mm (Mm (BAA-535)): 4 fold; MIC Alone (Mm) (Mm): > 20 µM
C[C@]12CCC(=O)CC1NCC1C2CC[C@]2(C)C(C(=O)Nc3cc(Br)ccc3Br)CCC12 (stereo partly drawn) [compound 10] |  |  | 30 | 7.6 | 
C[C@]12CCC(=O)CC1NCC1C2CC[C@]2(C)C(C(=O)NC34CC5CC(CC(C5)C3)C4)CCC12 (stereo partly drawn) [compound 11] |  |  | > 80 | 89.3 | Fold ∆ of BDQ MIC, Mm (Mm (BAA-535)): 6 fold
C[C@]12CCC3C(CNC4=CC(=O)CC[C@@]43C)C1CCC2C(=O)NC(c1ccc(F)cc1)c1ccc(F)cc1 (stereo partly drawn) [compound 12] | 24.2 | 32 fold | 31 | 31.4 | Fold ∆ of BDQ MIC, Mm (Mm (BAA-535)): 7 fold
CCCN1CC2C3CCC(C(=O)NC(c4ccc(F)cc4)c4ccc(F)cc4)[C@@]3(C)CCC2[C@@]2(C)CCC(=O)C=C12 (stereo partly drawn) [compound 13] |  | 128 fold | > 20 | > 100 | 
C[C@]12CCC(=O)CC1NCC1C2CC[C@]2(C)C(C(=O)NC(c3ccc(F)cc3)c3ccc(F)cc3)CCC12 (stereo partly drawn) [compound 14] |  |  | 80 | 14.2 | 
C[C@]12CCC3C(CNC4=CC(=O)CC[C@@]43C)C1CCC2C(=O)NC(c1ccc(F)cc1)c1ccc(C(F)(F)F)cc1 (stereo partly drawn) [compound 15] |  | 64 fold | > 20 | 26 | 
CCCN1CC2C3CCC(C(=O)NC(c4ccc(F)cc4)c4ccc(C(F)(F)F)cc4)[C@@]3(C)CCC2[C@@]2(C)CCC(=O)C=C12 (stereo partly drawn) [compound 16] |  | 64 fold | > 20 |  | inhibition of 3β-Hsd activity [1]: greater than 50%
C[C@]12CCC(=O)CC1NCC1C2CC[C@]2(C)C(C(=O)NC(c3ccc(F)cc3)c3ccc(C(F)(F)F)cc3)CCC12 (stereo partly drawn) [compound 17] | 15.6 |  | 20 | 10.1 | 
C[C@]12CCC3C(CNC4=CC(=O)CC[C@@]43C)C1CCC2C(=O)NC(c1ccncc1)c1ccc(F)cc1 (stereo partly drawn) [compound 18] |  | 4 fold | 15 | > 100 | 
C[C@]12CCC3C(CNC4=CC(=O)CC[C@@]43C)C1CCC2C(=O)NC(c1ccc(F)cc1)c1ccc(OC(F)(F)F)cc1 (stereo partly drawn) [compound 19] |  | 32-64 fold | > 20 | 58.4 | 
C[C@]12CCC(=O)CC1NCC1C2CC[C@]2(C)C(C(=O)NC(c3ccc(F)cc3)c3ccc(OC(F)(F)F)cc3)CCC12 (stereo partly drawn) [compound 20] |  | > 32 fold | > 20 | 5.7 | 
C[C@]12CCC(O)CC1NCC1C2CC[C@]2(C)C(C(=O)NC(c3ccc(F)cc3)c3ccc(OC(F)(F)F)cc3)CCC12 (stereo partly drawn) [compound 21] |  | > 32 fold | > 20 |  | 

SMILES | IC50 (THP-1 cells) [µM] | Fold ∆ of BDQ MIC, Mtb (Mtb (CDC1551)) | Mtb MIC Alone (Mtb) [µM] | IC50 (HepG2 cells) [µM] | also measured
C[C@]12CCC3C(CNC4=CC(=O)CC[C@@]43C)C1CCC2C(=O)NC(c1ccc(OC(F)F)cc1)c1ccc(OC(F)F)cc1 (stereo partly drawn) [compound 22] | 25.7 | > 32 fold | > 20 |  | 
C[C@]12CCC(=O)CC1NCC1C2CC[C@]2(C)C(C(=O)NC(c3ccc(OC(F)F)cc3)c3ccc(OC(F)F)cc3)CCC12 (stereo partly drawn) [compound 23] | 3.3 |  | 15 |  | 
CCCN1CC2C3CCC(C(=O)NC(c4ccc(OC(F)F)cc4)c4ccc(OC(F)F)cc4)[C@@]3(C)CCC2[C@@]2(C)CCC(=O)CC12 (stereo partly drawn) [compound 24] | > 100 |  | 60 |  | Fold ∆ of BDQ MIC, Mm (Mm (BAA-535)): 25.5 fold
C[C@]12CCC3C(CNC4=CC(=O)CC[C@@]43C)C1CCC2C(=O)NC(c1ccc(C(F)(F)F)cc1)c1ccc(C(F)(F)F)cc1 (stereo partly drawn) [compound 25] |  | 8 fold | 20 | 75.7 | 
C[C@]12CCC(=O)CC1NCC1C2CC[C@]2(C)C(C(=O)NC(c3ccc(C(F)(F)F)cc3)c3ccc(C(F)(F)F)cc3)CCC12 (stereo partly drawn) [compound 26] |  |  | 7.5 | 6 | 
CCCN1CC2C3CCC(C(=O)NC(c4ccc(C(F)(F)F)cc4)c4ccc(C(F)(F)F)cc4)[C@@]3(C)CCC2[C@@]2(C)CCC(=O)CC12 (stereo partly drawn) [compound 27] | > 100 | 2 fold | 20 |  | 
C[C@]12CCC3C(CNC4=CC(=O)CC[C@@]43C)C1CCC2C(=O)NC(c1ccc(OC(F)(F)F)cc1)c1ccc(OC(F)(F)F)cc1 (stereo partly drawn) [compound 28] | 12.8 | > 32 fold | > 20 |  | 
C[C@]12CCC(=O)CC1NCC1C2CC[C@]2(C)C(C(=O)NC(c3ccc(OC(F)(F)F)cc3)c3ccc(OC(F)(F)F)cc3)CCC12 (stereo partly drawn) [compound 29] | 4.5 |  | 5 |  | 
C[C@]12CCC(N)CC1NCC1C2CC[C@]2(C)C(C(=O)NC(c3ccc(OC(F)(F)F)cc3)c3ccc(OC(F)(F)F)cc3)CCC12 (stereo partly drawn) [compound 30] |  |  | 80 | 2.7 | 
CC(=O)N1CC2C3CCC(C(=O)NC(c4ccc(OC(F)(F)F)cc4)c4ccc(OC(F)(F)F)cc4)[C@@]3(C)CCC2[C@@]2(C)CCC(=O)CC12 (stereo partly drawn) [compound 31] |  | 1 fold | > 80 | > 100 | Fold ∆ of BDQ MIC, Mm (Mm (BAA-535)): 3.5 fold
C[C@]12CCC(O)CC1NCC1C2CC[C@]2(C)C(C(=O)NC(c3ccc(OC(F)(F)F)cc3)c3ccc(OC(F)(F)F)cc3)CCC12 (stereo partly drawn) [compound 32] |  |  | 5 | 5.75 | 
CC12CCC(=O)C=C1CCC1C2CCC2(C)C(C(=O)NC(c3ccc(OC(F)(F)F)cc3)c3ccc(OC(F)(F)F)cc3)CCC12 (stereo not drawn) [compound 33] |  | 1 fold | > 80 | > 100 | 
CC12CCC(=O)CC1CCC1C2CCC2(C)C(C(=O)NC(c3ccc(OC(F)(F)F)cc3)c3ccc(OC(F)(F)F)cc3)CCC12 (stereo not drawn) [compound 34] |  | 1 fold | > 80 | > 100 | 
CCCN1CC2C3CCC(C(=O)NC(c4ccc(OC(F)(F)F)cc4)c4ccc(OC(F)(F)F)cc4)[C@@]3(C)CCC2[C@@]2(C)CCC(=O)C=C12 (stereo partly drawn) [compound 36] | > 100 |  | > 40 |  | Fold ∆ of BDQ MIC, Mm (Mm (BAA-535)): 1.6 fold
CN(C)CCN1CC2C3CCC(C(=O)NC(c4ccc(OC(F)(F)F)cc4)c4ccc(OC(F)(F)F)cc4)[C@@]3(C)CCC2[C@@]2(C)CCC(=O)CC12 (stereo partly drawn) [compound 37] | 4.1 |  | 5 |  | 
C[C@]12CCC3C(CN(CC4CC4)C4CC(=O)CC[C@]34C)C1CCC2C(=O)NC(c1ccc(OC(F)(F)F)cc1)c1ccc(OC(F)(F)F)cc1 (stereo partly drawn) [compound 38] | 10 |  | 80 |  | 
C[C@]12CCC3C(CN(CCCF)C4CC(=O)CC[C@]34C)C1CCC2C(=O)NC(c1ccc(OC(F)(F)F)cc1)c1ccc(OC(F)(F)F)cc1 (stereo partly drawn) [compound 41] |  |  |  | > 100 | Fold ∆ of BDQ MIC, Mm (Mm (BAA-535)): 5 fold; MIC Alone (Mm) (Mm): > 20 µM
C[C@]12CCC3C(CN(CCC(F)(F)F)C4CC(=O)CC[C@]34C)C1CCC2C(=O)NC(c1ccc(OC(F)(F)F)cc1)c1ccc(OC(F)(F)F)cc1 (stereo partly drawn) [compound 42] |  |  |  | > 100 | Fold ∆ of BDQ MIC, Mm (Mm (BAA-535)): 1 fold; MIC Alone (Mm) (Mm): > 20 µM
C[C@]12CCC3C(CNC4=CC(=O)CC[C@@]43C)C1CCC2C(=O)Nc1ccc(C(=O)c2ccccc2)cc1 (stereo partly drawn) [compound 43] |  | 8 fold |  | > 100 | Fold ∆ of BDQ MIC, Mm (Mm (BAA-535)): 2 fold; MIC Alone (Mm) (Mm): > 20 µM
C#CCCC(=O)Nc1ccc(C(=O)c2ccc(NC(=O)C3CCC4C5CNC6=CC(=O)CC[C@]6(C)C5CC[C@]34C)cc2)cc1 (stereo partly drawn) [compound 44, 17β-[N-[4-(4-Aminobenzoyl)phenyl]pent-4-ynamide]-6-azaandrost-4-en-3-one] |  |  |  |  | BDQ potentiation activity in Mm (Mm (BAA-535); photoaffinity probes): showed BDQ potentiation activity
